{"source": "PubChem BioAssay AID292", "about": "(DTP/NCI, 2004)", "system": "B6C3F1 mice, ip Sarcoma M5076, median survival T/C", "assay": "NCI In Vivo Anticancer Drug Screen. Data for tumor model Sarcoma M5076 (intraperitoneal) in B6C3F1 mice", "settings": "endpoint: median survival time, higher = longer survival", "experimental": "The antitumor activity of compounds was measured in mice bearing transplantable tumors. Survival or tumor size were measured and the results are expressed as the measurement made in the treated group (T) divided by the measurement made in the vehicle treated control group (C). The tumor model used in this assay is Sarcoma M5076 (intraperitoneal) in B6C3F1 mice", "key": {"[1]": {"settings": "dose: 50.0 mg/kg/injection, schedule: Q04DX004 (ip), vehicle: Klucel (hydroxypropylcellulose) (HPC)"}, "[2]": {"settings": "dose: 100.0 mg/kg/injection, schedule: Q04DX004 (ip), vehicle: Klucel (hydroxypropylcellulose) (HPC)"}, "[3]": {"settings": "dose: 200.0 mg/kg/injection, schedule: Q04DX004 (ip), vehicle: Klucel (hydroxypropylcellulose) (HPC)"}, "[4]": {"settings": "dose: 25.0 mg/kg/injection, schedule: Q04DX004 (ip), vehicle: saline with Tween-80"}, "[5]": {"settings": "dose: 50.0 mg/kg/injection, schedule: Q04DX004 (ip), vehicle: saline with Tween-80"}}, "note": "Values joined by “and” are separate entries in the source; they are usually repeats but may differ in a detail not shown here. Equal values may be shown once. Toxic doses and inconclusive results are not listed.", "data": [{"smiles": "O=C1NC2(CCCCC2)C(=O)N1CCN(CCCl)CCCl", "values": [{"measurement": "T/C", "setting": "dose: 0.75 mg/kg/injection, schedule: Q01DX009 (ip), vehicle: saline with Tween-80", "result": "111 % of control"}, {"measurement": "T/C", "setting": "dose: 1.5 mg/kg/injection, schedule: Q01DX009 (ip), vehicle: saline with Tween-80", "result": "113 % of control"}, {"measurement": "T/C", "setting": "dose: 7.2 mg/kg/injection, schedule: Q01DX009 (ip), vehicle: saline with Tween-80", "result": "154 % of control"}, {"measurement": "T/C", "setting": "dose: 12.0 mg/kg/injection, schedule: Q01DX009 (ip), vehicle: saline with Tween-80", "result": "166 % of control and 176 % of control"}, {"measurement": "T/C", "setting": "dose: 20.0 mg/kg/injection, schedule: Q01DX009 (ip), vehicle: saline with Tween-80", "result": "244 % of control"}]}, {"smiles": "N#CC1C(=O)NC(=S)NC1c1ccc2c(c1)CCC2", "note": "(centres undefined)", "values": [{"measurement": "T/C", "setting": "dose: 50.0 mg/kg/injection, schedule: Q04DX004 (ip), vehicle: saline", "result": "103 % of control"}, {"measurement": "T/C", "setting": "dose: 100.0 mg/kg/injection, schedule: Q04DX004 (ip), vehicle: saline", "result": "97 % of control"}, {"measurement": "T/C", "setting": "dose: 200.0 mg/kg/injection, schedule: Q04DX004 (ip), vehicle: saline", "result": "102 % of control"}]}, {"smiles": "N#CC1C(=O)NC(=O)C(C#N)C1c1ccncc1", "note": "(centres undefined)", "values": [{"measurement": "T/C", "setting": "[1]", "result": "100 % of control"}, {"measurement": "T/C", "setting": "[2]", "result": "110 % of control"}, {"measurement": "T/C", "setting": "[3]", "result": "91 % of control"}, {"measurement": "T/C", "setting": "dose: 400.0 mg/kg/injection, schedule: Q04DX004 (ip), vehicle: Klucel (hydroxypropylcellulose) (HPC)", "result": "104 % of control"}, {"measurement": "T/C", "setting": "dose: 800.0 mg/kg/injection, schedule: Q04DX004 (ip), vehicle: Klucel (hydroxypropylcellulose) (HPC)", "result": "96 % of control"}]}, {"smiles": "c1ccc(P(CCNCCP(c2ccccc2)c2ccccc2)c2ccccc2)cc1", "values": [{"measurement": "T/C", "setting": "[4]", "result": "88 % of control"}, {"measurement": "T/C", "setting": "[5]", "result": "92 % of control"}, {"measurement": "T/C", "setting": "dose: 100.0 mg/kg/injection, schedule: Q04DX004 (ip), vehicle: saline with Tween-80", "result": "90 % of control"}]}, {"smiles": "Cc1ccc(C2C(C#N)C(=O)NC(=O)C2C#N)cc1", "note": "(centres undefined)", "values": [{"measurement": "T/C", "setting": "[1]", "result": "99 % of control"}, {"measurement": "T/C", "setting": "[2]", "result": "99 % of control"}, {"measurement": "T/C", "setting": "[3]", "result": "86 % of control"}]}, {"smiles": "CCOC(=O)c1cc(-c2ccccc2)c(=O)c(OC)nc1-c1ccccc1", "values": [{"measurement": "T/C", "setting": "dose: 18.75 mg/kg/injection, schedule: Q04DX004 (ip), vehicle: saline with Tween-80", "result": "87 % of control"}, {"measurement": "T/C", "setting": "dose: 37.5 mg/kg/injection, schedule: Q04DX004 (ip), vehicle: saline with Tween-80", "result": "95 % of control"}, {"measurement": "T/C", "setting": "dose: 75.0 mg/kg/injection, schedule: Q04DX004 (ip), vehicle: saline with Tween-80", "result": "93 % of control"}, {"measurement": "T/C", "setting": "dose: 150.0 mg/kg/injection, schedule: Q04DX004 (ip), vehicle: saline with Tween-80", "result": "90 % of control"}]}, {"smiles": "Cc1nc(N)nc(N)c1N1CCN(c2ccc(C(=O)NC(C(=O)O)C(=O)O)cc2)CC1", "values": [{"measurement": "T/C", "setting": "dose: 3.75 mg/kg/injection, schedule: Q04DX004 (ip), vehicle: Klucel + Tween-80", "result": "104 % of control"}, {"measurement": "T/C", "setting": "dose: 7.5 mg/kg/injection, schedule: Q04DX004 (ip), vehicle: Klucel + Tween-80", "result": "106 % of control"}, {"measurement": "T/C", "setting": "dose: 15.0 mg/kg/injection, schedule: Q04DX004 (ip), vehicle: Klucel + Tween-80", "result": "103 % of control"}, {"measurement": "T/C", "setting": "dose: 30.0 mg/kg/injection, schedule: Q04DX004 (ip), vehicle: Klucel + Tween-80", "result": "113 % of control"}, {"measurement": "T/C", "setting": "dose: 60.0 mg/kg/injection, schedule: Q04DX004 (ip), vehicle: Klucel + Tween-80", "result": "121 % of control"}]}, {"smiles": "C/C=C/C(C)C1OC1(C)C(O)C1COC(=O)C(O)C(OC)C(C)C(=O)C(C)C(O)/C(C)=C/C(C)C(=O)CC(O)C(C)C1=O", "note": "(centres undefined)", "values": [{"measurement": "T/C", "setting": "dose: 2.5 micrograms/kg/injection, schedule: Q04DX004 (ip), vehicle: saline", "result": "97 % of control"}, {"measurement": "T/C", "setting": "dose: 5.0 micrograms/kg/injection, schedule: Q04DX004 (ip), vehicle: saline", "result": "91 % of control"}, {"measurement": "T/C", "setting": "dose: 10.0 micrograms/kg/injection, schedule: Q04DX004 (ip), vehicle: saline", "result": "102 % of control"}, {"measurement": "T/C", "setting": "dose: 20.0 micrograms/kg/injection, schedule: Q04DX004 (ip), vehicle: saline", "result": "96 % of control"}]}, {"smiles": "OC1(c2ccccc2)c2ccccc2NC2=NCCN21", "note": "(centres undefined)", "values": [{"measurement": "T/C", "setting": "[4]", "result": "95 % of control"}, {"measurement": "T/C", "setting": "[5]", "result": "96 % of control"}]}, {"smiles": "O=S1(=O)CS(=O)(=O)OCCO1", "values": [{"measurement": "T/C", "setting": "dose: 6.25 mg/kg/injection, schedule: Q01DX009 (oral), vehicle: Klucel (hydroxypropylcellulose) (HPC)", "result": "160 % of control"}, {"measurement": "T/C", "setting": "dose: 6.25 mg/kg/injection, schedule: Q04DX004 (ip), vehicle: Klucel (hydroxypropylcellulose) (HPC)", "result": "165 % of control"}, {"measurement": "T/C", "setting": "dose: 12.5 mg/kg/injection, schedule: Q01DX001 (oral), vehicle: Klucel (hydroxypropylcellulose) (HPC)", "result": "109 % of control"}, {"measurement": "T/C", "setting": "dose: 12.5 mg/kg/injection, schedule: Q01DX009 (oral), vehicle: Klucel (hydroxypropylcellulose) (HPC)", "result": "192 % of control"}, {"measurement": "T/C", "setting": "dose: 12.5 mg/kg/injection, schedule: Q04DX004 (ip), vehicle: Klucel (hydroxypropylcellulose) (HPC)", "result": "180 % of control"}, {"measurement": "T/C", "setting": "dose: 25.0 mg/kg/injection, schedule: Q01DX009 (oral), vehicle: Klucel (hydroxypropylcellulose) (HPC)", "result": "300 % of control"}, {"measurement": "T/C", "setting": "dose: 25.0 mg/kg/injection, schedule: Q04DX004 (ip), vehicle: Klucel (hydroxypropylcellulose) (HPC)", "result": "267 % of control and 290 % of control"}, {"measurement": "T/C", "setting": "dose: 50.0 mg/kg/injection, schedule: Q01DX009 (oral), vehicle: Klucel (hydroxypropylcellulose) (HPC)", "result": "300 % of control"}, {"measurement": "T/C", "setting": "[1]", "result": "267 % of control and 300 % of control"}, {"measurement": "T/C", "setting": "dose: 100.0 mg/kg/injection, schedule: Q01DX001 (oral), vehicle: Klucel (hydroxypropylcellulose) (HPC)", "result": "300 % of control"}]}]}
